Experimental data reported in patent publication US5863952A, “Enantiomers of 1-(3,4-dichlorobenzyl)-2-methylaminoindane” (SmithKline Beecham plc, priority 1995, dated 1999).

Experiments:
[1] = tested on: voltage gated Ca2+ channel currents (remaining, predominantly N type, calcium current) in superior cervical ganglion neurons; test: Ca2+ current measurement, whole cell recording in cultured superior cervical ganglion neurons; type: cell-based; details: 5 μM drug coapplied with 10 μM Nimodipine for three minutes; 10 mM Ba2+ as charge carrier; holding potential -80 mV, test potential 0 or +10 mV; Hydrochloride
Method: Lett., 77, 55-60 (1987). Cells were plated onto laminin coated plastic tissue culture dishes and incubated at 37° C. until just prior to recording. Electrophysiological recordings were performed from 2 to 9 days after dissociation. The pipette (internal solution) contained in mM: CsCl, 130; HEPES, 10; EGTA, 10; MgCl2, 4; ATP, 2; buffered to pH 7.2 with CsOH. Cells were bathed in a normal Tyrodes solution before establishment of whole cell recording when the bathing solution was changed to one allowing isolation of Ca^2+ currents. The external solution for recording Ca^2+ channel currents contained in mM: BaCl2, 10; TEA-Cl, 130; glucose, 10; HEPES, 10; MgCl2, 1; buffered to pH 7.3 with TEA-OH. […] Whole cell currents were recorded using List EPC-7 amplifiers and stored, digitised for later analysis using PC based software similar to that described previously (Benham & Tsien, Journal of Physiology (1988), 404, 767-784). Peak voltage gated Ca^2+ channel currents of up to 10 nA were recorded using 10 mM Ba^2+ as charge carrier. […] The rundown rate was measured in control conditions and extrapolated through the time of drug application to derive a rundown corrected control value. Once a constant calcium current had been recorded for 4 successive pulses (1 minute) 10 μM Nimodipine, a dihydropyridine, was applied to the cell to block L type calcium current. […]

[2] = tested on: histological damage in the cerebral cortex after mid-cerebral artery occlusion; test: Mouse MCAO model; type: in vivo, CD1 mice; details: 10 mg.kg-1 i.p. 30 minutes post-ischaemia then 10 mg.kg-1 b.i.d. for 3 days, histology on 4th day
Method: Male CD1 mice weighing 25-29 g were anaesthetised with tribromoethanol, placed on a heat-pad and maintained at 37° C. The mid-cerebral artery was cauterised and divided via the intra-cranial route. On completion of surgery the mice were placed in an incubator for 2 hours to maintain body temperature during the acute recovery phase. On the 4th day the mice were euthanased and the brains removed for histological analysis. The dosing protocol in these experiments was 10 mg.kg^-1 30 minutes post-ischaemia then 10 mg.kg^-1 b.i.d. for 3 days. Injections were given via the i.p. route, and the vehicle was distilled water.

[3] = tested on: histological damage in the CA1 region of the hippocampus after carotid artery occlusion; test: Gerbil BCAO model; type: in vivo, Mongolian gerbils; details: 6 min carotid occlusion, 15 mg.kg-1 i.p. 30 minutes post-ischaemia then 5 mg.kg-1 b.i.d. for 3 days, histology on 5th day
Method: Male Mongolian gerbils weighing between 60-80 g were anaesthetised with halothane, placed on a heated mat and the carotid arteries occluded for 6 min. After reperfusion, the animals were sutured and placed in an incubator for 2 hours to maintain body temperature during the acute recovery phase. The animals were then caged separately and on the 5th day after the day of surgery they were euthanased and the brains removed for histological analysis. The dosing protocol in these experiments was 15 mg.kg^-1 30 minutes post-ischaemia then 5 mg.kg^-1 b.i.d. for 3 days. Injections were given via the i.p. route, and the vehicle was distilled water.

SMILES | inhibition of plateau Ca2+ current [1] | attenuation of histological damage in the cerebral cortex compared with ischaemic vehicle-treated animals [2] | attenuation of histological damage in the CA1 region of the hippocampus compared with ischaemic vehicle-treated animals [3]
CN[C@H]1Cc2ccccc2[C@H]1Cc1ccc(Cl)c(Cl)c1.Cl (single isomer, unassigned) [Example 1, (+)cis-1-(3,4-Dichlorobenzyl)-2-methylaminoindane Hydrochloride] | 95% | significant attenuation of the histological damage | significant attenuation of the histological damage
CN[C@H]1Cc2ccccc2[C@H]1Cc1ccc(Cl)c(Cl)c1.Cl (single isomer, unassigned) [Example 2, (-)cis-1-(3,4-Dichlorobenzyl)-2-methylaminoindane Hydrochloride] | 99% | significant attenuation of the histological damage | significant attenuation of the histological damage
